Data reported in patent US6274715A, “Tricyclic erythromycin derivatives” (priority 1997, dated 2001).
Values after ≈ are worked out from the molar mass of the structure shown.

Columns and labels:
Type in all cases: cell-based
[1] = system: STREPTOCOCCUS BOVIS A-5169; assay: In vitro antibacterial activity, MIC, BHI agar dilution; conditions: S. bovis A-5169, unit assumed
[2] = system: STREPTOCOCCUS PYOGENES PIU 2548; assay: as above; conditions: S. pyogenes PIU 2548, unit assumed
[3] = system: PROVIDENCIA STUARTII CMX 640; conditions: P. stuartii CMX 640; BHI agar; unit assumed
[4] = system: STAPHYLOCOCCUS AUREUS CMX 642A; assay: In vitro antibacterial activity, MIC, BHI agar dilution; conditions: S. aureus CMX 642A, unit assumed
ESCHERICHIA COLI SS = assay: as above; conditions: E. coli SS, unit assumed
[5] = system: PSEUDOMONAS AERUGINOSA DPHD-2862; assay: as above; conditions: P. aeruginosa DPHD-2862, unit assumed
[6] = system: STAPHYLOCOCCUS AUREUS NCTC10649M; assay: as above; conditions: S. aureus NCTC10649M, unit assumed
[7] = system: PSEUDOMONAS AERUGINOSA 5007; assay: as above; conditions: P. aeruginosa 5007, unit assumed
PSEUDOMONAS CEPACIA 296I = assay: as above; conditions: P. cepacia 296I, unit assumed
M[…] ATCC 4698 = assay: as above; conditions: M. luteus ATCC 4698, unit assumed
Method in brief: (§1)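 MIC was read visually as the lowest drug level with no growth, a slight haze or sparsely isolated colonies relative to a compound-free growth control. Organisms were spotted at 1:100 dilution (1:10 for slow-growing strains) onto Brain Heart Infusion agar containing serial compound dilutions and incubated 20 to 24 hours at 35-37° C.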

M[…] ATCC 9341 = assay: as above; conditions: M. luteus ATCC 9341, unit assumed
Method in brief: as §1

EN[…] ATCC 8043 = assay: as above; conditions: E. faecium ATCC 8043, unit assumed
Method in brief: as §1

STR[…] 508 = assay: as above; conditions: S. agalactiae CMX 508, unit assumed
Method in brief: as §1

[8] = system: PSEUDOMONAS AERUGINOSA K799/61; assay: as above; conditions: P. aeruginosa K799/61, unit assumed
[9] = system: MYCOBACTERIUM SMEGMATIS ATCC 114; assay: as above; conditions: M. smegmatis ATCC 114, unit assumed
[10] = system: STAPHYLOCOCCUS AUREUS A-5278; assay: as above; conditions: S. aureus A-5278, unit assumed
[11] = system: STAPHYLOCOCCUS AUREUS 1775; assay: as above; conditions: S. aureus 1775, unit assumed
ESCHERICHIA COLI H560 = assay: as above; conditions: E. coli H560, unit assumed
[12] = system: STREPTOCOCCUS PYOGENES 930; assay: as above; conditions: S. pyogenes 930, unit assumed
[13] = system: STREPTOCOCCUS PYOGENES EES61; assay: as above; conditions: S. pyogenes EES61, unit assumed
ESCHERICHIA COLI JUHL = conditions: E. coli JUHL; BHI agar; unit assumed
CANDIDA ALBICANS CCH 442 = assay: In vitro antibacterial activity, MIC, BHI agar dilution; conditions: C. albicans CCH 442, unit assumed
[14] = system: PSEUDOMONAS AERUGINOSA DPHD-5263; assay: as above; conditions: P. aeruginosa DPHD-5263, unit assumed
ESCHERICHIA COLI KNK 437 = conditions: E. coli KNK 437; BHI agar; unit assumed
[15] = system: STAPHYLOCOCCUS AUREUS CMX 553; assay: In vitro antibacterial activity, MIC, BHI agar dilution; conditions: S. aureus CMX 553, unit assumed
H. Influenza Dill AMP R = assay: In vitro antibacterial activity against H. Influenza Dill AMP R, MIC; conditions: separate assay, unit assumed
Procedure: Representative compounds of the present invention were assayed in vitro for antibacterial activity as follows: Twelve petri dishes containing successive aqueous dilutions of the test compound mixed with 10 mL of sterilized Brain Heart Infusion (BHI) agar (Difco 0418-01-5) were prepared. Each plate was inoculated with 1:100 (or 1:10 for slow-growing strains, such as Micrococcus and Streptococcus) dilutions of up to 32 different microorganisms, using a Steers replicator block. The inoculated plates were incubated at 35-37° C. for 20 to 24 hours. In addition, a control plate, using BHI agar containing no test compound, was prepared and incubated at the beginning and end of each test.
After incubation, each plate was visually inspected. The minimum inhibitory concentration (MIC) was defmed as the lowest concentration of drug yielding no growth, a slight haze, or sparsely isolated colonies on the inoculum spot as compared to the growth control.
In a separate assay representative compounds of the invention were assayed in vitro for antibacterial activity against the H. Influenza Dill AMP R strain, according to the protocol described above.

[16] = system: STAPHYLOCOCCUS AUREUS ATCC 6538P; assay: In vitro antibacterial activity, MIC, BHI agar dilution; conditions: S. aureus ATCC 6538P, 35-37° C., 20 to 24 hours, unit assumed
[17] = system: KLEBSIELLA PNEUMONIAE ATCC 8045; assay: as above; conditions: K. pneumoniae ATCC 8045, unit assumed
ESCHERICHIA COLI DC-2 = assay: as above; conditions: E. coli DC-2, unit assumed
[18] = system: PSEUDOMONAS AERUGINOSA BMH10; assay: as above; conditions: P. aeruginosa BMH10, unit assumed
[19] = system: STAPHYLOCOCCUS AUREUS A5177; assay: as above; conditions: S. aureus A5177, unit assumed
[20] = system: STAPHYLOCOCCUS EPIDERMIDIS 3519; conditions: S. epidermidis 3519; BHI agar; unit assumed
[21] = system: PSEUDOMONAS AERUGINOSA K799/WT; assay: In vitro antibacterial activity, MIC, BHI agar dilution; conditions: P. aeruginosa K799/WT, unit assumed
[22] = system: ENTEROBACTER AEROGENES ATCC 13048; assay: as above; conditions: E. aerogenes ATCC 13048, unit assumed

Compound | MIC [1] [µg/mL] | MIC [2] [µg/mL] | MIC [3] [µg/mL] | MIC [4] [µg/mL] | MIC (ESCHERICHIA COLI SS) [µg/mL] | MIC [5] [µg/mL] | MIC [6] [µg/mL] | MIC [7] [µg/mL] | MIC (PSEUDOMONAS CEPACIA 296I) [µg/mL] | MIC (M[…] ATCC 4698) [µg/mL] | MIC (M[…] ATCC 9341) [µg/mL] | MIC (EN[…] ATCC 8043) [µg/mL] | MIC (STR[…] 508) [µg/mL] | MIC [8] [µg/mL] | MIC [9] [µg/mL] | MIC [10] [µg/mL] | MIC [11] [µg/mL] | MIC (ESCHERICHIA COLI H560) [µg/mL] | MIC [12] [µg/mL] | MIC [13] [µg/mL] | other results
CC[C@H]1OC(=O)[C@H](C)C(=O)[C@H](C)[C@@H](O[C@@H]2O[C@H](C)C[C@H](N(C)C)[C@H]2O)[C@](C)(OC)C[C@@H](C)C2=NC[C@H](COCc3ccccc3)N3C(=O)O[C@@]1(C)[C@H]3[C@H]2C [Example 41] | ≤ 0.005 | 0.2 (≈ 0.264 µM) | 50 (≈ 66 µM) | 0.05 (≈ 0.066 µM) | 0.2 (≈ 0.264 µM) | 50 (≈ 66 µM) | 0.05 (≈ 0.066 µM) | 50 (≈ 66 µM) | 12.5 (≈ 16.5 µM) | 0.1 (≈ 0.132 µM) | 0.01 (≈ 0.0132 µM) | 0.02 (≈ 0.0264 µM) | 0.02 (≈ 0.0264 µM) | 0.2 (≈ 0.264 µM) | 0.2 (≈ 0.264 µM) | > 100 | > 100 | 1.56 (≈ 2.06 µM) | > 100 | 0.01 (≈ 0.0132 µM) | MIC (ESCHERICHIA COLI JUHL): 6.2 µg/mL (≈ 8.18 µM); MIC (CANDIDA ALBICANS CCH 442): > 100 µg/mL; MIC [14]: 12.5 µg/mL (≈ 16.5 µM); MIC (ESCHERICHIA COLI KNK 437): 6.2 µg/mL (≈ 8.18 µM); MIC [15]: 0.05 µg/mL (≈ 0.066 µM); MIC (H. Influenza Dill AMP R): 2 µg/mL (≈ 2.64 µM); MIC [16]: 0.05 µg/mL (≈ 0.066 µM); MIC [17]: 25 µg/mL (≈ 33 µM); MIC (ESCHERICHIA COLI DC-2): 3.1 µg/mL (≈ 4.09 µM); MIC [18]: 50 µg/mL (≈ 66 µM); MIC [19]: 0.05 µg/mL (≈ 0.066 µM)
CC[C@H]1OC(=O)[C@H](C)C(=O)[C@H](C)[C@@H](O[C@@H]2O[C@H](C)C[C@H](N(C)C)[C@H]2O)[C@](C)(OC)C[C@@H](C)C2=NC[C@H](COCc3cccc(F)c3)N3C(=O)O[C@@]1(C)[C@H]3[C@H]2C [Example 72] | ≤ 0.005 | 0.39 (≈ 0.503 µM) | > 100 | 0.1 (≈ 0.129 µM) | 0.39 (≈ 0.503 µM) | > 100 | 0.1 (≈ 0.129 µM) | 100 (≈ 129 µM) | 50 (≈ 64.4 µM) | 0.2 (≈ 0.258 µM) | ≤ 0.005 | 0.05 (≈ 0.0644 µM) | 0.01 (≈ 0.0129 µM) | 0.39 (≈ 0.503 µM) | 0.39 (≈ 0.503 µM) | > 100 | > 100 | 12.5 (≈ 16.1 µM) | 50 (≈ 64.4 µM) | 0.01 (≈ 0.0129 µM) | MIC [20]: 0.2 µg/mL (≈ 0.258 µM); MIC (ESCHERICHIA COLI JUHL): 50 µg/mL (≈ 64.4 µM); MIC (CANDIDA ALBICANS CCH 442): > 100 µg/mL; MIC [14]: > 100 µg/mL; MIC (ESCHERICHIA COLI KNK 437): 50 µg/mL (≈ 64.4 µM); MIC [15]: 0.1 µg/mL (≈ 0.129 µM); MIC (H. Influenza Dill AMP R): 2 µg/mL (≈ 2.58 µM); MIC [21]: 50 µg/mL (≈ 64.4 µM); MIC [16]: 0.1 µg/mL (≈ 0.129 µM); MIC (ESCHERICHIA COLI DC-2): 25 µg/mL (≈ 32.2 µM); MIC [18]: 50 µg/mL (≈ 64.4 µM); MIC [19]: 0.1 µg/mL (≈ 0.129 µM); MIC [22]: 50 µg/mL (≈ 64.4 µM)
CC[C@H]1OC(=O)[C@H](C)C(=O)[C@H](C)[C@@H](O[C@@H]2O[C@H](C)C[C@H](N(C)C)[C@H]2O)[C@](C)(OC)C[C@@H](C)C2=NC3CN(CCc4cccc([N+](=O)[O-])c4)CC3N3C(=O)O[C@@]1(C)[C@H]3[C@H]2C (some centres unmarked) [Example 120] | 0.01 (≈ 0.0121 µM) | 0.39 (≈ 0.471 µM) | > 100 | 0.2 (≈ 0.242 µM) | 0.39 (≈ 0.471 µM) | > 100 | 0.2 (≈ 0.242 µM) | > 100 | 100 (≈ 121 µM) | 0.2 (≈ 0.242 µM) | 0.02 (≈ 0.0242 µM) | 0.05 (≈ 0.0604 µM) | 0.01 (≈ 0.0121 µM) | 0.78 (≈ 0.942 µM) | 0.78 (≈ 0.942 µM) | > 100 | > 100 | 50 (≈ 60.4 µM) | > 100 | 0.01 (≈ 0.0121 µM) | MIC [20]: 0.39 µg/mL (≈ 0.471 µM); MIC (ESCHERICHIA COLI JUHL): 50 µg/mL (≈ 60.4 µM); MIC (CANDIDA ALBICANS CCH 442): > 100 µg/mL; MIC [14]: > 100 µg/mL; MIC (ESCHERICHIA COLI KNK 437): > 100 µg/mL; MIC [15]: 0.2 µg/mL (≈ 0.242 µM); MIC (H. Influenza Dill AMP R): 4 µg/mL (≈ 4.83 µM); MIC [21]: > 100 µg/mL; MIC [16]: 0.2 µg/mL (≈ 0.242 µM); MIC [17]: > 100 µg/mL; MIC (ESCHERICHIA COLI DC-2): 50 µg/mL (≈ 60.4 µM); MIC [18]: > 100 µg/mL; MIC [19]: 0.2 µg/mL (≈ 0.242 µM); MIC [22]: > 100 µg/mL
